Test results taken from patent publication EP0121635A1, “3',5',-Diarabinosides, their preparation and their therapeutical application” (SYNTHELABO, priority 1982, dated 1984).

How the values were obtained:
[1] = system: tumeur ascitique d'Ehrlich; assay: Development of Ehrlich ascites tumour in mice (survival); format: in vivo, Souris; conditions: for Nombre d'animaux sans tumeur au 28ème jour: day 28, controls 0/12 and 0/5; for Nombre d'animaux sans tumeur au 28ème jour / % d'augmentation de survie (pour les animaux décédés): same regimen; for Durée de survie des souris: souris Swiss, 2 x 10^6 malignant cells i.p., 4 days; for % d'augmentation de survie (pour les animaux décédés): versus controls; for % d'augmentation: increase of survival versus controls
Experimental: Les composés de l'invention ont été soumis à des essais pharmacologiques montrant leur intérêt dans le domaine antitumoral. L'action des composés sur le développement de la tumeur ascitique d'Ehrlich chez la Souris a été observée.
Les essais se font sur des lots de 5 ou 6 souris Swiss de 12 à 15 g. Chaque animal reçoit 2 x 10^6 cellules malignes par voie péritonéale. Le traitement débute 16 h après l'inoculation et consiste en 2 injections par jour de 0,75 ml d'une solution de dinucléotide à 2 mg/ml dans le péritoine c'est-à-dire 3 mg par animal et par jour ou 200 mg/kg. La durée du traitement est de 4 jours.
Les dinucléotides,composés de l'invention, ont été testés de la manière indiquée.

virus Herpès = assay: Herpes virus yield in treated cell cultures (TCID50 titre); format: cell-based; conditions: untreated control harvest titre 10^5,625; concentration not given
Text: L'activité des trois composés de l'invention Ara A-p-Ara A, Ara A-p-Ara C et Ara C-p-Ara A a également été démontrée sur le virus Herpès.
La récolte virale témoin (cellules non traitées) a un titre TCI D50 (tissue culture infecting dosis) de 10^5,625.
Les cultures traitées par les composés de l'invention ont les titres suivants • Ara A-p-Ara A TCID50 = 10^3,16 • ^Ara A^-p-Ara C TCID50 ^< 102 • Ara C-p-Ara A TCID50 ≤ 10^2,5

[2] = Tableau 1, dinucleotide 200 mg/kg per day i.p. in 2 injections, start 16 h after inoculation, controls 16,54 j (Ara A, Ara C) and 18 j (Ara A-p-Ara C)
[3] = Tableau 2, dinucleotide 200 mg/kg per day i.p., controls 14,67 j

Compound	Nombre d'animaux sans tumeur au 28ème jour ([1]; Tableau 1)	Durée de survie des souris [1, 2]	% d'augmentation de survie (pour les animaux décédés) ([1]; Tableau 1)	% d'augmentation ([1]; Tableau 2)	Durée de survie des souris [1, 3]	TCID50 (titre of viral harvest of treated cultures) (virus Herpès)
Nc1ncnc2c1ncn2[C@@H]1O[C@H](CO)[C@@H](O)[C@@H]1O [Ara A, 9-β-D-arabinofuranosyl-adénine]	0	24,5 j	48,5%	39,75%	20,5 j	
Nc1ncnc2c1ncn2[C@@H]1O[C@H](COP(=O)(O)O[C@H]2[C@H](O)[C@H](n3cnc4c(N)ncnc43)O[C@@H]2CO)[C@@H](O)[C@@H]1O [Ara A-p-Ara A]				44,3%	21,17 j	
Nc1ccn([C@@H]2O[C@H](COP(=O)(O)O[C@H]3[C@H](O)[C@H](n4cnc5c(N)ncnc54)O[C@@H]3CO)[C@@H](O)[C@@H]2O)c(=O)n1 [Ara A-p-Ara C]	4/5	> 36 J	> 100%			< 102
Nc1ccn([C@@H]2O[C@H](CO)[C@@H](O)[C@@H]2O)c(=O)n1 [Ara C, 1-β-D-arabinofuranosyl-cytosine]	0	32 J	94,4%			
